Source: publication PMC7108740, “Exploring the molecular structures that confer ligand selectivity for galanin type II and III receptors” (PLoS ONE, 2020)

Tests used:
[1] = target: T1, GALR3 single mutant F^265P (Homo sapiens, UniProt O60755); assay: SRE-luc luciferase assay, GALR3 F265P; type: cell-based; details: GALR3 F^265P; SRE-luc in HEK293 Gqi cells, ligand 6 h; mean ± S.E.
T1 construct: expressed in transfected cells; host or cells: HEK293 cells stably expressing Gqi
Source text: For domain swapping between GALR2 and GALR3, individual cDNA fragments of interest were amplified by polymerase chain reaction (PCR) with Pfu polymerase (ELPIS Biotech, Daejeon, Korea) and two specific primers, one corresponding to the 5' or 3' end of the GALR2 or GALR3 cDNA and the other to the region of overlap between the two receptors. The two resulting fragments, one from GALR2 and the other from GALR3, were subjected to a second round of PCR to generate the chimeric cDNAs. To construct single, double-, triple-, pentuple-, hextuple-, and septuple-mutant receptors, amino acids of GALR3 were substituted for the amino acids at the corresponding positions in GALR2 using PCR-based site-directed mutagenesis. All of the chimeric constructs were cloned into the pcDNA3 expression vector at HindⅢ and XbaⅠ sites. The DNA sequences of the chimeras were verified by automatic sequencing. […] The luciferase activity in 50 μl cell extract was determined using a luciferase assay system according to the standard protocol for the Synergy 2 Multi-Mode Microplate Reader (BioTek, Winooski, VT, USA). […] The concentrations of agonists that induced half-maximal stimulation (EC50) were calculated using the GraphPad PRISM5 software (GraphPad software, Inc., San Diego, CA). […]

[2] = target: T2, GALR3 (Homo sapiens, UniProt O60755); assay: cAMP assay (inhibition of forskolin-induced cAMP), WT GALR3; type: cell-based; parameters: expressed in transfected cells; host or cells: HEK293 cells stably expressing pGlosensor-22F cAMP plasmid; details: Glosensor-22F cAMP HEK293 cells, agonist 10 min then forskolin 10 μM, mean ± SE, SEM
T2 sequence (O60755 1-368): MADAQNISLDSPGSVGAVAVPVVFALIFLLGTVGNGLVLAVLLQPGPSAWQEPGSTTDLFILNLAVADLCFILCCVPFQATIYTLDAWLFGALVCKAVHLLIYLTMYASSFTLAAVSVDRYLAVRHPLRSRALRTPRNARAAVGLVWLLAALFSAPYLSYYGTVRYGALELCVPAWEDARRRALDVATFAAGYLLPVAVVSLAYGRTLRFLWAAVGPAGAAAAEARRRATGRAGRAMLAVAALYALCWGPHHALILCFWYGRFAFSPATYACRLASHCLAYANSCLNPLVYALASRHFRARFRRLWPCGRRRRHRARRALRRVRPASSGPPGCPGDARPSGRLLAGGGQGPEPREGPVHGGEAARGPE
Experimental: SPX-induced or Qu-SPX-induced cyclic adenosine monophosphate (cAMP) mobilization was measured in HEK293 cells stably expressing the pGlosensor^TM-22F cAMP plasmid (Promega Corp., Madison, WI, USA). The Glosensor-22F cAMP HEK293 cells were seeded on 96-well plates at a density of 2.0 × 10^4 cells/well 24 h before transfection. A mixture including 100 ng expression plasmid and lipofectamine 2000 reagent in diluted Opti-MEM (Gibco) was incubated at room temperature for 20 min. The mixtures were added into each well according to the manufacturer's instructions (Invitrogen, CA, USA). After 48 h, Glosensor cAMP substrates were added to the transfected cells in CO2-independent media. After 2 h, the cells were incubated with a range of agonist concentrations or vehicle for 10 min and then exposed to foskolin (10 μM). Luminescence was measured for up to 30 min using a Microplate Reader (BioTek, Winooski, VT, USA).
Data analysis was performed by non-linear regression with a sigmoidal dose-response curve. The concentrations of agonists that induced half-maximal stimulation (EC50) were calculated using the GraphPad PRISM5 software (GraphPad software, Inc., San Diego, CA). All data are presented as the mean ± standard error (SE) of at least three independent experiments. […]

T1 sequence (O60755 whole entry F265L): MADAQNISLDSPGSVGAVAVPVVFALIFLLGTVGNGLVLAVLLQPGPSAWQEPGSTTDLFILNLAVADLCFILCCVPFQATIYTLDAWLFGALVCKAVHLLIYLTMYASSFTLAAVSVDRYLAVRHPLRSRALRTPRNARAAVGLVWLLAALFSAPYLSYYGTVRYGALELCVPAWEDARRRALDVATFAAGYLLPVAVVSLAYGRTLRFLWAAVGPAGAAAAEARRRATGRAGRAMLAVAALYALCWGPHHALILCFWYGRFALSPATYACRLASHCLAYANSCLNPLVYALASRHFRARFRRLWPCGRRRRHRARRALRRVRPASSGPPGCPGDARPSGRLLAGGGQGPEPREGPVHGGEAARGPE

- EC50 [1]: > 1000 nM
- EC50 [2]: 117 ± 51.4 nM
SMILES: CSCC[C@H](NC(=O)[C@H](C)NC(=O)[C@H](CCC(N)=O)NC(=O)[C@@H]1CCCN1C(=O)[C@@H](NC(=O)[C@H](Cc1c[nH]c2ccccc12)NC(=O)[C@@H](N)CC(N)=O)[C@@H](C)O)C(=O)N[C@@H](CC(C)C)C(=O)N[C@@H](Cc1ccc(O)cc1)C(=O)N[C@@H](CC(C)C)C(=O)N[C@@H](CCCCN)C(=O)NCC(=O)N[C@@H](C)C(=O)N[C@@H](CCC(N)=O)C(N)=O [SPX, reference compound]
